In PubChem BioAssay (NCI):
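Tested at 5 concentrations; 48 h exposure; 96-well plates; endpoints linearly interpolated, else capped at highest concentration. TGI marks complete inhibition of growth.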

What was measured:
Assay in all cases: DTP human tumour cell line panel, 48 h
[1] = system: OVCAR-5 ovarian
[2] = system: HS 578T breast
[3] = system: MOLT-4 leukemia
[4] = system: SK-MEL-2 melanoma
[5] = system: SNB-19 CNS
[6] = system: PC-3 prostate
[7] = system: HCT-15 colon
[8] = system: MDA-N
[9] = system: NCI-H460 lung
[10] = system: MDA-MB-231 breast
[11] = system: HCC-2998 colon
[12] = system: SF-268 CNS
[13] = system: SK-OV-3 ovarian
[14] = system: CCRF-CEM leukemia
[15] = system: MDA-MB-435
[16] = system: CAKI-1 renal
[17] = system: OVCAR-3 ovarian
[18] = system: SF-539 CNS

| Compound | TGI [1] [µM] | TGI [2] [µM] | TGI [3] [µM] | TGI [4] [µM] | TGI [5] [µM] | TGI [6] [µM] | TGI [7] [µM] | TGI [8] [µM] | TGI [9] [µM] | TGI [10] [µM] | TGI [11] [µM] | TGI [12] [µM] | TGI [13] [µM] | TGI [14] [µM] | TGI [15] [µM] | TGI [16] [µM] | TGI [17] [µM] | TGI [18] [µM] |
| --- | --- | --- | --- | --- | --- | --- | --- | --- | --- | --- | --- | --- | --- | --- | --- | --- | --- | --- |
| CCOC(=O)CCC(NC(=O)C(N)c1ccc([N+](=O)[O-])cc1)C(=O)NC(CCC(=O)OCC)C(=O)OCC (configuration not stated) | > 100 | > 100 | > 100 | > 100 | > 100 | > 100 | > 100 | > 100 | > 100 | > 100 | > 100 |  |  |  |  |  |  |  |
| [N-]=[N+]=Nc1ccc2c(c1)Sc1ccccc1N2CCCCN1CCN(Cc2ccc(C(=O)c3ccc(CSCC(N)C(=O)O)cc3)cc2)CC1 (configuration not stated) | > 100 |  | > 100 | 48.1 |  | > 100 | 30.4 | 35.4 | > 100 | 50.9 | 59.2 | > 100 | > 100 | > 100 | 3.16 | 67 | > 100 |  |
| NS(=O)(=O)c1nnc(NC(=O)c2cccc([N+](=O)[O-])c2)s1 | > 100 | > 100 | > 100 | > 100 | > 100 |  | > 100 | > 100 | > 100 | > 100 | > 100 | > 100 | > 100 |  | > 100 | > 100 | > 100 | > 100 |
| CCOC(=O)[C@@H]1ON2O[C@H](OC3CCCCC3c3ccccc3)C[C@H]3OC(=O)[C@@H]1C32 (some centres not stated) | > 100 | > 100 | > 100 |  |  |  | > 100 | > 100 | > 100 | > 100 | > 100 | > 100 | > 100 | 0.614 | > 100 | > 100 | > 100 | > 100 |
| Cc1cc(S(=O)(=O)NC2=NCCN2Cc2ccccc2)c(S)cc1Cl | > 100 |  | > 100 | > 100 | > 100 | > 100 | > 100 | > 100 | > 100 | > 100 | > 100 | > 100 | > 100 | > 100 | > 100 | > 100 | > 100 | > 100 |
| CCOC(=O)c1nc2ccc(C(F)(F)F)cc2nc1Nc1ccc(F)cc1 | > 100 | 73.8 | > 100 | > 100 | > 100 | > 100 | > 100 | > 100 | > 100 |  |  | > 100 | > 100 |  | > 100 | > 100 | > 100 | > 100 |
| COc1cc(/C=N/c2ccccn2)cc(OC)c1OC | > 100 | > 100 | > 100 | > 100 | > 100 |  | > 100 | > 59.4 | > 100 | > 100 | > 100 | > 100 | > 100 | > 100 | 58.6 | > 100 | > 100 | > 100 |
| CN(C)/C=N\c1nncc2[nH]cnc12 | > 100 |  | > 100 | > 100 |  | > 100 | > 100 | > 100 |  |  | > 100 |  | > 100 | > 100 | > 100 | > 100 | > 100 | > 100 |
| O=C(O)C1CCCCN1C(=O)Cc1c[nH]c2ccccc12 (configuration not stated) | > 100 |  | > 100 | > 100 | > 100 | > 100 | > 100 | > 100 | > 100 | > 100 | > 100 | > 100 | > 100 | > 100 | > 100 | > 100 | > 100 | > 100 |
| Nc1ncnc2c1ncn2-c1ccc([N+](=O)[O-])cn1 | > 100 | > 100 |  | > 100 | > 100 |  | > 100 | > 100 | > 100 | > 100 | > 100 | > 100 | > 100 | > 100 | > 100 | > 100 | > 100 | > 100 |
| CCCCCCSCC/C(C)=N\OC | > 100 |  | > 100 | > 100 | > 100 | > 100 | > 100 | > 100 | > 100 | > 100 | > 100 | > 100 | > 100 | > 100 | > 100 | > 100 | > 100 | > 100 |
| CCOC(=O)c1nc2ccccc2nc1Nc1ccc(OC)cc1 | > 100 | > 100 | > 100 | > 100 | 83.9 | > 100 | > 100 |  | > 100 | 51.3 | > 100 | > 100 |  | > 100 | > 100 | 56.6 | 70.4 | 52.1 |
| CC1(C)S[C@H](CN)N[C@H]1C(=O)OC(c1ccccc1)c1ccccc1 | > 100 | > 100 | 74.9 | 93.3 |  | 92.4 | > 100 |  |  | > 100 | 36 | > 100 | > 100 |  | > 100 | > 100 |  |  |
